Experiments:
[1] = target: DYRK1A (Homo sapiens (Human), UniProt Q13627); experiment: DYRK1A activity Tau assay: pSer396 Tau in SH-SY5Y cells by ELISA / western blot; format: cell-based; conditions: overnight (16-18 h) exposure
[2] = system: primary human mesenchymal stem cells (hMSCs); experiment: Chondrogenesis assay in primary human mesenchymal stem cells, nodule count vs TGF-β3 positive control; format: cell-based; conditions: 6 days; for Conc (nM) of Max. activity: 6-point dose-response 2700 nM to 10 nM, dose at which maximum chondrogenesis activity was reached; for Max. Activity as % TGF-β3 activity: relative to TGF-β3 (10 ng/mL) positive control; for Conc (nM) of 100% TGF-β3 activity: concentration required to induce chondrogenesis equivalent to TGF-β3 (10 ng/mL)
Source text: The above synthesized compounds were screened using primary human mesenchymal stem cells (hMSCs) to determine their ability to induce chondrogenesis (process by which cartilage is developed).
Human Mesenchymal Stem Cell Culture:
Primary human mesenchymal stem cells (hMSCs) were purchased from Lonza (Walkersville, Md.) and expanded in Mesenchymal Stem Cell Growth Media (Lonza). Cells between passage 3 and 6 were used for the experiments.
Number of nodules in each well was normalized to the average of 3 DMSO treated wells on the same plate using Excel (Microsoft Inc.). The normalized averages (fold change over DMSO) of 3 replicate wells for each compound concentration were calculated. Due to solubility limitations of some of the compounds, curve fitting was incomplete leading to inaccurate EC50 determinations.
Using TGF-β3 as a positive control, the concentration of test compounds required to induce equivalent levels of chondrogenesis is reported. In addition, the maximum activity of each compound and the respective dose that each compound reached maximum chondrogenesis activity is reported.

SMILES	EC50 [1] [µM]	Conc (nM) of Max. activity [2] [nM]	Max. Activity as % TGF-β3 activity [2] [%]	Conc (nM) of 100% TGF-β3 activity [2] [nM]
O=C(Nc1cccc2cccnc12)c1n[nH]c2ccc(-c3cccnc3)cc12 [Compound 43, 5-(Pyridin-3-yl)-N-(quinolin-8-yl)-1H-indazole-3-carboxamide]	2.2	100	38	
O=C(Nc1ccnc(C(F)(F)F)c1)c1n[nH]c2ccc(-c3cccnc3)cc12 [Compound 45, 5-(Pyridin-3-yl)-N-(2-(trifluoromethyl)pyridin-4-yl)-1H-indazole-3-carboxamide]	0.038	900	114	900
O=C(Nc1ccc(N2CC(F)(F)C2)nc1)c1n[nH]c2ccc(-c3cncc(CN4CCCCC4)c3)cc12 [Compound 71, N-(6-(3,3-Difluoroazetidin-1-yl)pyridin-3-yl)-5-(5-(piperidin-1-ylmethyl)pyridin-3-yl)-1H-indazole-3-carboxamide]	0.002	900	110	900
COc1cc(NC(=O)c2n[nH]c3ccc(-c4cncc(CN5CCCCC5)c4)cc23)ccn1 [Compound 78, N-(2-Methoxypyridin-4-yl)-5-(5-(piperidin-1-ylmethyl)pyridin-3-yl)-1H-indazole-3-carboxamide]	0.002	900	79	
CC(C)N1CCC(NC(=O)c2n[nH]c3ccc(-c4cccnc4)cc23)CC1 [Compound 90, N-(1-Isopropylpiperidin-4-yl)-5-(pyridin-3-yl)-1H-indazole-3-carboxamide]	0.015	2700	169	2700
CC(C)CN1CCC(NC(=O)c2n[nH]c3ccc(-c4cccnc4)cc23)CC1 [Compound 91, N-(1-Isobutylpiperidin-4-yl)-5-(pyridin-3-yl)-1H-indazole-3-carboxamide]	0.011	2700	120	2700

Second part, led by results:

EC50 [1] [µM]	SMILES	Conc (nM) of Max. activity [2] [nM]	Max. Activity as % TGF-β3 activity [2] [%]	Conc (nM) of 100% TGF-β3 activity [2] [nM]
0.556	Cc1ncc(NC(=O)c2n[nH]c3ccc(-c4cccnc4)cc23)cn1 [Compound 97, N-(2-Methylpyrimidin-5-yl)-5-(pyridin-3-yl)-1H-indazole-3-carboxamide]	2700	98	2700
0.001	Cc1ncc(NC(=O)c2n[nH]c3ccc(-c4cncc(CN5CCCCC5)c4)cc23)cn1 [Compound 98, N-(2-Methylpyrimidin-5-yl)-5-(5-(piperidin-1-ylmethyl)pyridin-3-yl)-1H-indazole-3-carboxamide]	2700	161	2700
0.878	O=C(Nc1cccnc1)c1n[nH]c2cc(F)c(-c3cccnc3)cc12 [Compound 99, 6-Fluoro-N,5-di(pyridin-3-yl)-1H-indazole-3-carboxamide]	2700	64	
0.005	O=C(Nc1ccnc(N2CCCCC2)c1)c1n[nH]c2ccc(-c3cccnc3)cc12 [Compound 103, N-(2-(Piperidin-1-yl)pyridin-4-yl)-5-(pyridin-3-yl)-1H-indazole-3-carboxamide]	2700	130	2700
0.042	CC(C)NC(=O)c1n[nH]c2ccc(-c3cncc(CN4CCCC4)c3)cc12 [Compound 129, N-Isopropyl-5-(5-(pyrrolidin-1-ylmethyl)pyridin-3-yl)-1H-indazole-3-carboxamide]	2700	108	2700
0.058	O=C(NC1CCCCC1)c1n[nH]c2ccc(-c3cncc(N4CCCC4)c3)cc12 [Compound 200, N-Cyclohexyl-5-(5-(pyrrolidin-1-yl)pyridin-3-yl)-1H-indazole-3-carboxamide]	2700	138	2700
0.035	C#CCN1CCC(NC(=O)c2n[nH]c3ccc(-c4cccc(F)c4F)cc23)CC1 [Compound 367, 5-(2,3-Difluorophenyl)-N-(1-(prop-2-yn-1-yl)piperidin-4-yl)-1H-indazole-3-carboxamide]	2700	65	

— patent US10669240B2, “5-substituted indazole-3-carboxamides and preparation and use thereof” (Samumed, LLC, priority 2014, dated 2020)
